Laboratory results taken from the NIST ThermoML archive (doi:10.1021/je200721d).
± gives the expanded uncertainty stated by the source.

Test: xn = mol fraction of the nth substance listed
Conditions: Liquid, Vibrating tube method

CCCCCCCC [octane] + CCCCCC
Conditions | mass density [kg/m3]
333.01 K, 7000 kPa, x2 = 0.9308 | 636.74 ± 0.33
333.01 K, 8000 kPa, x2 = 0.9308 | 638.01 ± 0.34
333.01 K, 9000 kPa, x2 = 0.9308 | 639.26 ± 0.35
333.01 K, 10000 kPa, x2 = 0.9308 | 640.48 ± 0.36
333.01 K, 11000 kPa, x2 = 0.9308 | 641.7 ± 0.37
333.01 K, 12000 kPa, x2 = 0.9308 | 642.89 ± 0.38
333.01 K, 13000 kPa, x2 = 0.9308 | 644.06 ± 0.39
333.01 K, 14000 kPa, x2 = 0.9308 | 645.22 ± 0.4
333.01 K, 15000 kPa, x2 = 0.9308 | 646.35 ± 0.41
333.01 K, 16000 kPa, x2 = 0.9308 | 647.46 ± 0.42
333.01 K, 17000 kPa, x2 = 0.9308 | 648.54 ± 0.43
333.01 K, 18000 kPa, x2 = 0.9308 | 649.61 ± 0.44
333.01 K, 19000 kPa, x2 = 0.9308 | 650.63 ± 0.45
333.01 K, 20000 kPa, x2 = 0.9308 | 651.64 ± 0.46
333.01 K, 21000 kPa, x2 = 0.9308 | 652.62 ± 0.47
333.01 K, 22000 kPa, x2 = 0.9308 | 653.55 ± 0.48
333.01 K, 23000 kPa, x2 = 0.9308 | 654.5 ± 0.49
333.01 K, 24000 kPa, x2 = 0.9308 | 655.39 ± 0.51
333.01 K, 25000 kPa, x2 = 0.9308 | 656.28 ± 0.52
333.02 K, 1000 kPa, x2 = 0.1654 | 665.79 ± 0.26
333.02 K, 1000 kPa, x2 = 0.7995 | 637.16 ± 0.28
333.02 K, 2000 kPa, x2 = 0.1654 | 666.85 ± 0.27
333.02 K, 2000 kPa, x2 = 0.7995 | 638.39 ± 0.28
333.02 K, 3000 kPa, x2 = 0.1654 | 667.91 ± 0.28
333.02 K, 3000 kPa, x2 = 0.7995 | 639.63 ± 0.29
333.02 K, 4000 kPa, x2 = 0.1654 | 668.97 ± 0.29
333.02 K, 4000 kPa, x2 = 0.7995 | 640.91 ± 0.3
333.02 K, 5000 kPa, x2 = 0.1654 | 670.04 ± 0.29
333.02 K, 5000 kPa, x2 = 0.7995 | 642.14 ± 0.31
333.02 K, 6000 kPa, x2 = 0.1654 | 671.11 ± 0.3
333.02 K, 6000 kPa, x2 = 0.7995 | 643.37 ± 0.32
333.02 K, 7000 kPa, x2 = 0.1654 | 672.17 ± 0.31
333.02 K, 7000 kPa, x2 = 0.7995 | 644.6 ± 0.33
333.02 K, 8000 kPa, x2 = 0.1654 | 673.21 ± 0.32
333.02 K, 8000 kPa, x2 = 0.7995 | 645.81 ± 0.34
333.02 K, 9000 kPa, x2 = 0.1654 | 674.28 ± 0.33
333.02 K, 9000 kPa, x2 = 0.7995 | 647.01 ± 0.35
333.02 K, 10000 kPa, x2 = 0.1654 | 675.32 ± 0.34
333.02 K, 10000 kPa, x2 = 0.7995 | 648.19 ± 0.36
333.02 K, 11000 kPa, x2 = 0.1654 | 676.36 ± 0.34
333.02 K, 11000 kPa, x2 = 0.7995 | 649.36 ± 0.37
333.02 K, 12000 kPa, x2 = 0.1654 | 677.38 ± 0.35
333.02 K, 12000 kPa, x2 = 0.7995 | 650.5 ± 0.38
333.02 K, 13000 kPa, x2 = 0.1654 | 678.38 ± 0.36
333.02 K, 13000 kPa, x2 = 0.7995 | 651.63 ± 0.39
333.02 K, 14000 kPa, x2 = 0.1654 | 679.38 ± 0.37
333.02 K, 14000 kPa, x2 = 0.7995 | 652.74 ± 0.4
333.02 K, 15000 kPa, x2 = 0.1654 | 680.34 ± 0.38
333.02 K, 15000 kPa, x2 = 0.7995 | 653.84 ± 0.4
333.02 K, 16000 kPa, x2 = 0.1654 | 681.29 ± 0.39
333.02 K, 16000 kPa, x2 = 0.7995 | 654.91 ± 0.41
333.02 K, 17000 kPa, x2 = 0.1654 | 682.26 ± 0.4
333.02 K, 17000 kPa, x2 = 0.7995 | 655.95 ± 0.42
333.02 K, 18000 kPa, x2 = 0.1654 | 683.15 ± 0.41
333.02 K, 18000 kPa, x2 = 0.7995 | 656.97 ± 0.43
333.02 K, 19000 kPa, x2 = 0.1654 | 684.04 ± 0.41
333.02 K, 19000 kPa, x2 = 0.7995 | 657.98 ± 0.44
333.02 K, 20000 kPa, x2 = 0.1654 | 684.93 ± 0.42
333.02 K, 20000 kPa, x2 = 0.7995 | 658.95 ± 0.45
333.02 K, 21000 kPa, x2 = 0.1654 | 685.79 ± 0.43
333.02 K, 21000 kPa, x2 = 0.7995 | 659.91 ± 0.46
333.02 K, 22000 kPa, x2 = 0.1654 | 686.62 ± 0.44
333.02 K, 22000 kPa, x2 = 0.7995 | 660.83 ± 0.47
333.02 K, 23000 kPa, x2 = 0.1654 | 687.45 ± 0.45
333.02 K, 23000 kPa, x2 = 0.7995 | 661.72 ± 0.48
333.02 K, 24000 kPa, x2 = 0.1654 | 688.25 ± 0.46
333.02 K, 24000 kPa, x2 = 0.7995 | 662.6 ± 0.49
333.02 K, 25000 kPa, x2 = 0.1654 | 689.01 ± 0.47
333.02 K, 25000 kPa, x2 = 0.7995 | 663.44 ± 0.51
333.04 K, 1000 kPa, x2 = 0.2199 | 663.81 ± 0.26
333.04 K, 2000 kPa, x2 = 0.2199 | 664.87 ± 0.27
333.04 K, 3000 kPa, x2 = 0.2199 | 665.96 ± 0.28
333.04 K, 4000 kPa, x2 = 0.2199 | 667.04 ± 0.29
333.04 K, 5000 kPa, x2 = 0.2199 | 668.13 ± 0.29
333.04 K, 6000 kPa, x2 = 0.2199 | 669.19 ± 0.3
333.04 K, 7000 kPa, x2 = 0.2199 | 670.26 ± 0.31
333.04 K, 8000 kPa, x2 = 0.2199 | 671.36 ± 0.32
333.04 K, 9000 kPa, x2 = 0.2199 | 672.39 ± 0.33
333.04 K, 10000 kPa, x2 = 0.2199 | 673.44 ± 0.34
333.04 K, 11000 kPa, x2 = 0.2199 | 674.49 ± 0.35
333.04 K, 12000 kPa, x2 = 0.2199 | 675.5 ± 0.35
333.04 K, 13000 kPa, x2 = 0.2199 | 676.53 ± 0.36
333.04 K, 14000 kPa, x2 = 0.2199 | 677.53 ± 0.37
333.04 K, 15000 kPa, x2 = 0.2199 | 678.51 ± 0.38
333.04 K, 16000 kPa, x2 = 0.2199 | 679.46 ± 0.39
333.04 K, 17000 kPa, x2 = 0.2199 | 680.4 ± 0.4
333.04 K, 18000 kPa, x2 = 0.2199 | 681.32 ± 0.41
333.04 K, 19000 kPa, x2 = 0.2199 | 682.23 ± 0.42
333.04 K, 20000 kPa, x2 = 0.2199 | 683.09 ± 0.43
333.04 K, 21000 kPa, x2 = 0.2199 | 683.96 ± 0.43
333.04 K, 22000 kPa, x2 = 0.2199 | 684.8 ± 0.44
333.04 K, 23000 kPa, x2 = 0.2199 | 685.61 ± 0.45
333.04 K, 24000 kPa, x2 = 0.2199 | 686.43 ± 0.46
333.04 K, 25000 kPa, x2 = 0.2199 | 687.22 ± 0.47
